Measured values reported in patent US12637471B2, “Heterocyclic compounds, compositions, methods of preparation and uses thereof” (Organon R&D Finland Ltd, priority 2021, dated 2026).

Key:
Assay type in all cases: biochemical
[1] = biological target: T1, Recombinant human AKR1C3 (17β-HSD5) protein (Homo sapiens, UniProt P42330); assay: Inhibition of AKR1C3 (17β-hydroxysteroid dehydrogenase type 5) enzyme, fluorescence assay; conditions: inhibitor at 500 nM
T1 construct: made in house; host or cells: E. coli
T1 sequence (P42330 1-323): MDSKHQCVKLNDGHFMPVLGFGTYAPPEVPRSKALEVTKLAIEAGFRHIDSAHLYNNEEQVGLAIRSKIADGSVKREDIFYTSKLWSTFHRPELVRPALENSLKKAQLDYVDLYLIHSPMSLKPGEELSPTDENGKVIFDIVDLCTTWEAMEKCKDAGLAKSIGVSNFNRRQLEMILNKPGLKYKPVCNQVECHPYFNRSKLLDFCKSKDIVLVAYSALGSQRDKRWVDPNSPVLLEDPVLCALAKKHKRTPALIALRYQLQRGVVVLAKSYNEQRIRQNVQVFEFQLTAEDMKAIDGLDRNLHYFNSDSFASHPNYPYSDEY
Procedure, shortened: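 Percent inhibition at 500 nM compound, derived from substrate conversion; product alcohol measured by fluorescence (ex 420, em 510 nm) against a 1 μM–10 nM standard curve. Reaction: 27 nM recombinant AKR1C3, 1 μM ketone substrate, 1 mM NADPH, phosphate/EDTA buffer pH 7.4, 1% DMSO, RT for 60–120 min.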

[2] = biological target: T2, Recombinant human aldo-keto reductase family 1 member C2 (AKR1C2) protein (Homo sapiens, UniProt P52895); assay: Inhibition of the aldo-keto reductase family 1 member C2, 3H-dihydrotestosterone conversion; conditions: inhibitor at 10 μM
T2 construct: made in house; host or cells: Sf-9 insect cells (baculovirus)
T2 sequence (P52895 1-323): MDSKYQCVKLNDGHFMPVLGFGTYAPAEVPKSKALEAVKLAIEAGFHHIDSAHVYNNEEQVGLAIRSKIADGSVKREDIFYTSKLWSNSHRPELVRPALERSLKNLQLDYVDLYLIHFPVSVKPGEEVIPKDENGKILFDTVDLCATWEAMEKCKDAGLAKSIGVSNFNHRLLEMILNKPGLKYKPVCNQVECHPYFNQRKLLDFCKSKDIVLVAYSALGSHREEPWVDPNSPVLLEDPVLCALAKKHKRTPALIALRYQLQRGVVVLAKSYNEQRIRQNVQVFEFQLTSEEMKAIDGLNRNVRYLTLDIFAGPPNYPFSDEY
Procedure, shortened: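 Single-point screen at 10 μM inhibitor, 1% DMSO: [3H]DHT (6.25 nM) reduction to 3α-diol by baculovirus-made AKR1C2 (13.6 nM), pH 7.4 phosphate buffer, 1 mM NADPH, 37 °C for 45 min. Radio-UPLC quantified product versus substrate to give percent inhibition.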

[3] = biological target: T3, 17β-Hydroxysteroid Dehydrogenase Type 2 Enzyme (17β-HSD2) (Homo sapiens, UniProt P37059); assay: Inhibition of the 17β-hydroxysteroid dehydrogenase type 2 enzyme, 3H-testosterone conversion; conditions: inhibitor at 10 μM
T3 construct: made in house; host or cells: Sf-9 insect cells (baculovirus)
T3 sequence (P37059 1-387): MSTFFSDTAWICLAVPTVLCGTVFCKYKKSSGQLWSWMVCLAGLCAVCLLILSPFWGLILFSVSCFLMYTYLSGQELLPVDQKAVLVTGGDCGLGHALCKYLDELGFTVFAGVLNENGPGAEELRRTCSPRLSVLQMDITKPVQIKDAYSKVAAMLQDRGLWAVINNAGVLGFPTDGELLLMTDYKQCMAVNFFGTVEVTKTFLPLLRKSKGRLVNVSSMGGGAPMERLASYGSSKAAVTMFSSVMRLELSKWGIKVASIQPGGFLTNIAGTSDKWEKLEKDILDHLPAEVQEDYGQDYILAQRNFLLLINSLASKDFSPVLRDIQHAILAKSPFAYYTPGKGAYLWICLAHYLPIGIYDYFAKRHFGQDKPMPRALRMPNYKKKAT
Procedure, shortened: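 Single-point screen at 10 μM inhibitor, 1% DMSO: Sf-9-expressed human enzyme (105 nM), NAD 1 mM, ³H-labelled testosterone 56.25 nM, pH 8.5 phosphate/EDTA buffer, 30 min, room temperature. After TCA quench, substrate and product radioactivity quantified by UPLC with scintillation detection; inhibition percent from conversion.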

SMILES	inhibition at 0.5 µM [1] [%]	inhibition at 10 µM [2] [%]	inhibition at 10 µM [3] [%]
CC(C)OC1CCN(C(=O)N2CCC(=C(C#N)c3ccc(Cl)cc3)CC2)CC1 [Compound 133, 2-(4-chlorophenyl)-2-(1-(4-isopropoxypiperidine-1-carbonyl)piperidin-4-ylidene)acetonitrile]	97	16	23
N#CC(=C1CCN(C(=O)N2CCc3nocc3C2)CC1)c1ccc(Cl)cc1 [Compound 141, 2-(4-chlorophenyl)-2-(1-(4,5,6,7-tetrahydroisoxazolo[4,3-c]pyridine-5-carbonyl)piperidin-4-ylidene)acetonitrile]	98	33	7
CC(=O)N1CCN(C(=O)N2CCC(=C(C#N)c3cccc(Cl)c3)CC2)CC1 [Compound 96, 2-(1-(4-acetylpiperazine-1-carbonyl)piperidin-4-ylidene)-2-(3-chlorophenyl)acetonitrile]	95	13	11
N#CC(=C1CCN(C(=O)N2CCc3[nH]ncc3C2)CC1)c1ccc(F)cc1F [Compound 122, 2-(2,4-difluorophenyl)-2-(1-(4,5,6,7-tetrahydro-1H-pyrazolo[4,3-c]pyridine-5-carbonyl)piperidin-4-ylidene)acetonitrile]	99	42	24
N#CC(=C1CCN(C(=O)N2CCc3nocc3C2)CC1)c1ccc(F)cc1F [Compound 38, 2-(2,4-difluorophenyl)-2-(1-(4,5,6,7-tetrahydroisoxazolo[4,3-c]pyridine-5-carbonyl)piperidin-4-ylidene)acetonitrile]	97	30	27
CC(O)C1CCN(C(=O)N2CCC(=C(C#N)c3ccc(OC(F)(F)F)cc3)CC2)CC1 (stereo not drawn) [Compound 124, 2-(1-(4-(1-hydroxyethyl)piperidine-1-carbonyl)piperidin-4-ylidene)-2-(4-(trifluoromethoxy)phenyl)acetonitrile]	91	4	9
N#CC(=C1CCN(C(=O)N2CCn3ncnc3C2)CC1)c1cc(F)cc(F)c1 [Compound 166, 2-(3,5-difluorophenyl)-2-(1-(5,6,7,8-tetrahydro-[1,2,4]triazolo[1,5-a]pyrazine-7-carbonyl)piperidin-4-ylidene)acetonitrile]	96	13	2
N#CC(=C1CCN(C(=O)N2CCn3cncc3C2)CC1)c1ccc(Cl)cc1 [Compound 46, 2-(4-chlorophenyl)-2-(1-(5,6,7,8-tetrahydroimidazo[1,5-a]pyrazine-7-carbonyl)piperidin-4-ylidene)acetonitrile]	102	8	11
N#CC(=C1CCN(C(=O)N2CCC(CO)CC2)CC1)c1ccc(F)cc1F [Compound 39, 2-(2,4-difluorophenyl)-2-(1-(4-(hydroxymethyl)piperidine-1-carbonyl)piperidin-4-ylidene)acetonitrile]	96	13	6
CCOC1CCN(C(=O)N2CCC(=C(C#N)c3ccc(Cl)s3)CC2)CC1 [Compound 125, 2-(5-chlorothiophen-2-yl)-2-(1-(4-ethoxypiperidine-1-carbonyl)piperidin-4-ylidene)acetonitrile]	97	18	17
CCN(CC)C(=O)N1CCC(=C(C#N)c2ccc(OC(F)(F)F)cc2)CC1 [Compound 170, 4-(cyano(4-(trifluoromethoxy)phenyl)methylene)-N,N-diethylpiperidine-1-carboxamide]	98	4	28
CCN(CC)C(=O)N1CCC(=C(C#N)c2ccc(F)cc2)CC1 [Compound 5, 4-(cyano(4-fluorophenyl)methylene)-N,N-diethylpiperidine-1-carboxamide]	99	15	15

Continued, values first:

inhibition at 0.5 µM [1] [%]	inhibition at 10 µM [2] [%]	inhibition at 10 µM [3] [%]	SMILES
99	6	10	COC1CCN(C(=O)N2CCC(=C(C#N)c3ccc(Cl)cc3)CC2)CC1 [Compound 79, 2-(4-chlorophenyl)-2-(1-(4-methoxypiperidine-1-carbonyl)piperidin-4-ylidene)acetonitrile]
98	21	-11	N#CC(=C1CCN(C(=O)N2CCc3sccc3C2)CC1)c1ccc(F)cc1 [Compound 108, 2-(4-fluorophenyl)-2-(1-(4,5,6,7-tetrahydrothieno[3,2-c]pyridine-5-carbonyl)piperidin-4-ylidene)acetonitrile]
96	5	0	N#CC(=C1CCN(C(=O)N2CCCCC2)CC1)c1ccc(Cl)cc1 [Compound 104, 2-(4-chlorophenyl)-2-(1-(piperidine-1-carbonyl)piperidin-4-ylidene)acetonitrile]
95	18	28	N#CC(=C1CCN(C(=O)N2CCCCC2)CC1)c1ccc(F)cc1 [Compound 3, 2-(4-fluorophenyl)-2-(1-(piperidine-1-carbonyl)piperidin-4-ylidene)acetonitrile]
98	16	7	N#CC(=C1CCN(C(=O)N2CCn3cncc3C2)CC1)c1ccc(F)cc1 [Compound 27, 2-(4-fluorophenyl)-2-(1-(5,6,7,8-tetrahydroimidazo[1,5-a]pyrazine-7-carbonyl)piperidin-4-ylidene)acetonitrile]
97	2	9	CCOC1CCN(C(=O)N2CCC(=C(C#N)c3ccc(F)cc3)CC2)CC1 [Compound 20, 2-(1-(4-ethoxypiperidine-1-carbonyl)piperidin-4-ylidene)-2-(4-fluorophenyl)acetonitrile]
98	7	8	COC[C@@H]1CCCN1C(=O)N1CCC(=C(C#N)c2ccc(F)cc2)CC1 [Compound 8, (S)-2-(4-fluorophenyl)-2-(1-(2-(methoxymethyl)pyrrolidine-1-carbonyl)piperidin-4-ylidene)acetonitrile]
98	9	17	N#CC(=C1CCN(C(=O)N2CCC(CO)CC2)CC1)c1ccc(Cl)cc1 [Compound 74, 2-(4-chlorophenyl)-2-(1-(4-(hydroxymethyl)piperidine-1-carbonyl)piperidin-4-ylidene)acetonitrile]
99	6	20	N#CC(=C1CCN(C(=O)N2CCC(CO)CC2)CC1)c1ccc(C(F)(F)F)cc1 [Compound 76, 2-(1-(4-(hydroxymethyl)piperidine-1-carbonyl)piperidin-4-ylidene)-2-(4-(trifluoromethyl)phenyl)acetonitrile]
91	3	4	N#CC(=C1CCN(C(=O)N2CCC(CCCO)CC2)CC1)c1ccc(F)cc1 [Compound 142, 2-(4-fluorophenyl)-2-(1-(4-(3-hydroxypropyl)piperidine-1-carbonyl)piperidin-4-ylidene)acetonitrile]
